# According to US10322126B2, “Solid dispersions of low-water solubility actives” (Bend Research, Inc., priority 2013, dated 2019):
# Tests used:
# [1] = Microcentrifuge dissolution test (simulated gastric buffer, then FaSSIF); type: physicochemical; conditions: 37° C.
# Procedure: Dispersion 1 was evaluated in vitro using a microcentrifuge dissolution test using the following procedure. First, a sample of Dispersion 1 was placed in a microcentrifuge tube. A simulated gastric buffer (GB) solution consisting of 0.01 N HCl in water at 37° C. was added to each tube, so that the concentration if all of the active in the dispersion had dissolved would have been 2000 μg/mL. The tubes were vortexed for 1 minute. All work was performed in a temperature-controlled box at 37° C. After 9 minutes, the tubes were centrifuged at 13,000 rpm for 1 minute. A 50 μL centrifuged supernatant aliquot was removed from each tube and added to an HPLC vial containing 250 μL HPLC grade methanol. Following sample removal, the tubes were vortexed for 30 seconds. The tubes were allowed to sit undisturbed until the next sample, repeating the centrifuging/sampling/vortexing steps described above, to obtain a sample at 25 minutes following addition of the GB solution to the sample.
# After 30 minutes in the GB solution, 0.8 mL of double strength (1 wt %) simulated intestinal fluid powder (SIF powder, available from Phares AG, Basel, Switzerland) in double strength phosphate buffer saline (0.166 M NaCl, 0.040 M Na2HPO4, and 0.093 M KH2PO4), adjusted to pH 6.5 was added to each tube. The tubes were vortexed for 1 minute. The testing solution composition was used to model fasted simulated intestinal fluid (FaSSIF). The FaSSIF powder contains bile salts (taurocholate) and phospholipids (lecithin) in a molar ratio of 4 to 1, along with buffers and osmotic adjusters. The concentration of active in each tube was 1000 μg/mL if all of the active had dissolved. After 3 minutes in the FaSSIF solution, the tubes were centrifuged at 13,000 rpm for 1 minute. A 50 μL centrifuged supernatant aliquot was removed, as previously described, and added to an HPLC vial containing 250 μL of methanol. The tube then was vortexed for 30 seconds, and left undisturbed until the next time point. The procedure was repeated to collect samples at 10, 20, 40, 90, and 180 minutes after addition of FaSSIF to the vials.
# The dissolved concentrations of active were measured by HPLC. HPLC was performed using a Zorbax® SB-C18, 4.6×150 mm, 5 μm column at 30° C., and a mobile phase comprising 20 mM ammonium acetate/acetonitrile (43/57 vol/vol). The flow rate was 1.0 mL/min, 10 μL of each solution was injected, and the absorbance was measured at 332 nm.
# Dispersion 2 was tested using the same procedures described above. Control 1 was tested using the same procedures described above.
# [2] = cited from earlier work
smiles,measurement,setting,value
"C#Cc1cccc(Nc2ncnc3cc(OCCOC)c(OCCOC)cc23)c1 [Erlotinib, N-(3-ethynylphenyl)-6,7-bis(2-methoxyethoxy) quinazolin-4-amine]",Dissolved Active Concentration,"[1]; 10 minutes, GB solution (0.01 N HCl), 2000 μg/mL if all dissolved","1,847.8 μg/mL"
same,Dissolved Active Concentration,"[1]; 25 minutes, GB solution (0.01 N HCl), 2000 μg/mL if all dissolved","1,818.5 μg/mL"
same,Dissolved Active Concentration,"[1]; 34 minutes (4 min after addition of FaSSIF, pH 6.5), 1000 μg/mL if all dissolved",58.0 µg/mL
same,Dissolved Active Concentration,"[1]; 40 minutes (10 min after addition of FaSSIF, pH 6.5), 1000 μg/mL if all dissolved",68.1 µg/mL
same,Dissolved Active Concentration,"[1]; 50 minutes (20 min after addition of FaSSIF, pH 6.5), 1000 μg/mL if all dissolved",51.4 µg/mL
same,Dissolved Active Concentration,"[1]; 70 minutes (40 min after addition of FaSSIF, pH 6.5), 1000 μg/mL if all dissolved",55.1 µg/mL
same,Dissolved Active Concentration,"[1]; 120 minutes (90 min after addition of FaSSIF, pH 6.5), 1000 μg/mL if all dissolved",67.8 µg/mL
same,Dissolved Active Concentration,"[1]; 210 minutes (180 min after addition of FaSSIF, pH 6.5), 1000 μg/mL if all dissolved",55.1 µg/mL
same,solubility in phosphate buffered saline (pH 6.5),[2],about 1 μg/mL
